# From publication PMC5601738, “Facile total synthesis of lysicamine and the anticancer activities of the Ru^II, Rh^III, Mn^II and Zn^II complexes of lysicamine” (Oncotarget, 2017)
# Experiments:
# [1] = system: pBR322 plasmid DNA; assay: Agarose gel electrophoresis assay with pBR322 plasmid DNA; format: biochemical; settings: pBR322 0.5 μg/μL, TBE buffer pH=8.5, 10 to 100 μM
# Procedure: The DNA cleavage activity of 2, 3 and LY were tested by agarose gel electrophoresis assay using pBR322 plasmid DNA (0.5 μg/μL) in TBE buffer (pH=8.5). […] In contrast, under the same experimental conditions, when the concentration of 2 increased from 10 μM to 50 μM, the mobility of supercoiled DNA (form I) was reduced, but the relaxed form (form II) was not observed. When the concentration of 2 increased further to 70 μM, the form II DNA appeared. Almost all supercoiled DNA (form I) changed to relaxed DNA (form II) when the concentration of 2 reached 90 and 100 μM.
# RT-qPCR was performed. The threshold cycle (Ct) values approval no. SCXK 2014-0002 and SYXK 2014-0003), […]
# were housed at a sterile environment with conditions of […]
# than 3 days before used. Complexes and LYwere all […]
# is limited in 1% in final working solutions. KM mice. The large concentration of 2 in 10% (v/v) […]
# ct-DNA CD spectrum as control.
# The HepG2 xenograft mice were induced by
# 37 °C in the dark for 4 h.
# The percent weight loss or gain was calculated […]
# imaging system under a UV-Vis transilluminator.. Percent tumour growth inhibition after initiation of treatment with 2 and cisplatin were calculated by TGI= […]
# initial for control group).
# Animals were supplied by Guangxi Medical
# University Laboratory Animal Centre (Guangxi, China, […]
# [2] = system: HepG2 cells; assay: Cell cycle analysis by flow cytometry; format: cell-based, human
# [3] = system: HepG2 cells; assay: Uptake of metal complexes in HepG2 cells (ICP-MS); format: cell-based, human; settings: HepG2, 2 at 7.0 μM, 3 at […], 8 h
# [4] = system: HepG2 cells; assay: ROS, intracellular Ca2+ and mitochondrial membrane potential (DCFH-DA, Fluo-3 AM, JC-1); settings: HepG2, 24 h; 2 at 3.5, 7.0, […]; 3 at 7.0, 14.0, 28.0 μM
# Procedure: The changes in the ROS level, intracellular Ca^2+ and loss of ΔΨm in the HepG2 cells were detected by the DCFH-DA, Fluo-3 AM, and JC-1 fluorescent probes, respectively (see in Figure 5A). Green fluorescence represented higher ROS levels, more intracellular Ca^2+, and reduced ΔΨm.
# Measurement of oxygen species (ROS), Determination of cell cycle and apoptotic related
# intracellular Ca2+ and mitochondrial membrane proteins
# and then resuspended in 1mL of DCFH-DA (100 μM) onto a PVDF membrane.
# cytometry or fluorescence microscope.
# [5] = system: T-24; assay: MTT assay, T-24 cells; format: cell-based, human; settings: 48 h
# [6] = system: HepG2 cells; assay: Hoechst33258 assay; settings: HepG2, 24 h; 2 at 3.5, 7.0, […]; 3 at 7.0, 14.0, 28.0 μM
# Procedure: The Hoechst33258 assay is commonly used to measure the changes in cell morphology caused by apoptosis [55]. The HepG2 cells were incubated with 2 (3.5, 7.0, and 14.0 μM) and 3 (7.0, 14.0, and 28.0 μM) for 24 h, respectively, then stained with Hoechst33258 and examined under a fluorescence microscope (Figure 4A).
# Hoechst33258 assay Cell cycle-, apoptotic-associated proteins used
# The morphology characters of apoptosis of HepG2 western blotting analysis
# cells treated with 2 and 3 were carried out by Hoechst Extraction of total protein
# 33258 staining. About 1×10^6 cells were seeded in six-well
# plates, and treated with 2 (3.5, 7.0 and 14.0 μM) and 3 After HepG2 cells incubated with 2 (3.5, 7.0, 14.0
# (7.0, 14.0 and 28.0 μM) for 24 h. The cells were fixed with μM) and 3 (7.0, 14.0, 28.0 μM) for 24 h, cells were
# then stained with Hoechst 33258 for another 10 min in on ice.
# [7] = system: ct-DNA; assay: CD absorption spectrometry assay with ct-DNA; format: binding; settings: ct-DNA 1×10^−4 M, [DNA]/[compound] 10:0.5 to 10:2.0
compound,measurement,setting,value
"COc1cc2ccnc3c2c(c1OC)-c1ccccc1C3=O.COc1cc2ccnc3c2c(c1OC)-c1ccccc1C3=O.COc1cc2ccnc3c2c(c1OC)-c1ccccc1C3=O.ClC(Cl)Cl.ClC(Cl)Cl.ClC(Cl)Cl.[Mn+2].[O-][Cl+3]([O-])([O-])[O-].[O-][Cl+3]([O-])([O-])[O-] [Complex 3, [Mn(LY)3](ClO4)2·3CHCl3]",DNA cleavage activity on supercoiled pBR322 DNA,[1],cleavage of supercoiled DNA was still little
same,cell population in S phase,"[2]; HepG2, 28.0 μM, 24 h, control 31.23%",48.70%
same,effect on cell cycle progression,"[2]; HepG2, 24 h",significant cell cycle arrest at the S phase
same,distribution of the metal (Rh or Mn) in mitochondrial vs nuclear fraction,[3],higher in the mitochondrial fraction than in the nuclear fraction
same,"ROS, intracellular Ca2+ and ΔΨm",[4],"caused overproduction of ROS, rising intracellular Ca^2+, and loss of Δψm"
same,inhibitive ratio T-24,[5]; 20 μmol/L,45.42±1.66%
same,IC50,"[5]; MTT, mean ± SD from five independent experiments",15.4 ± 1.81 µM
same,Hoechst33258 fluorescence / apoptotic cell morphology,[6],stronger fluorescence in a dose-dependent manner
same,change of CD spectrum of ct-DNA / binding,[7],significant hypochromism in both the negative and the positive bands
